One assay addresses T1, Leucine aminopeptidase (Plasmodium falciparum 3D7, UniProt Q8IL11).
T1 sequence (Q8IL11 whole entry): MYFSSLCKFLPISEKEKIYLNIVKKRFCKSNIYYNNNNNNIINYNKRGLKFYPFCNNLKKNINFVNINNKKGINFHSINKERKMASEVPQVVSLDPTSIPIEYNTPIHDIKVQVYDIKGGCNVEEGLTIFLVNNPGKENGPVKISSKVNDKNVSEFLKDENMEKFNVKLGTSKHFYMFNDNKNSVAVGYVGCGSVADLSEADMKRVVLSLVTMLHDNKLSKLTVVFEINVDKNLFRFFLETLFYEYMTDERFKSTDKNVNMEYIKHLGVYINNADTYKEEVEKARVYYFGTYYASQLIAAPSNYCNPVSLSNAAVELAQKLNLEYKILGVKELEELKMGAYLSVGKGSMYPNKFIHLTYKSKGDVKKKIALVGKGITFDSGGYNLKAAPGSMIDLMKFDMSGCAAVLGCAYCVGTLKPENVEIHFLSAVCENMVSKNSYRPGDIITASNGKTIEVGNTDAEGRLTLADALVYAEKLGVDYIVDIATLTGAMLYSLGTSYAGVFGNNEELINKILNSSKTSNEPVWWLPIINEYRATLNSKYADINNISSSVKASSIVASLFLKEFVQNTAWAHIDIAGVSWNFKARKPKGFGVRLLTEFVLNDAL
Put plainly: P. falciparum M17LAP inhibitors, primary screen, biochemical, fluorogenic H-Leu-NHMec substrate, 1536-well (AID 1619). Type of assay: functional.

Assay [1] can be described thus: viability loss in HEK293 cells – cell-based, plate reader, cherry-picked samples, cytotoxicity control, dose response (AID 743446). Type of assay: functional.
The nature of assay [2]: toxicity toward HepG2 liver cells – cell-based, plate reader, cherry-pick, antagonist series, cytotoxicity control, dose response (AID 743416). Type of assay: functional.
Assay [3] can be described thus: A549 cell cytotoxicity, dose response, cytotoxicity control, plate reader, cherry-pick, antagonist series (AID 743412). Format: functional, cell-based.
A short description of assay [4]: viability loss in THP-1 monocytes – THP-1 cells, cytotoxicity control for Vif-APOBEC3G degradation inhibitor project, dose response (AID 1117359). Type of assay: functional. As to conditions: THP-1.
Another assay concerns HEK293. Put plainly: EBV LMP1 TES2 canonical NF-kB signalling blockers – cell-based, HEK293, luciferase, cherry-pick, dose response (AID 588343). The conditions noted are these: Homo sapiens. Type of assay: functional.
The nature of assay [5]: blockade of melanocortin 4 receptor signaling – cell-based, plate reader, cherry pick, counter-screen for LGR2 antagonist project, dose response (AID 743444).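 Further: transfected HEK 293 cells stimulated with alpha-MSH peptide; potency of inhibitors of the alpha-MSH evoked signal.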 Type of assay: functional. A general note: The purpose of a counterscreen is to sort out artefacts and off-target activity.
The nature of assay [6]: blockers of bursicon-stimulated LGR2 cAMP reporter – cell-based, HEK293, CRE-luciferase reporter, cherry pick, set 2, dose response (AID 743343).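 Further: transfected cells were stimulated with diluted bursicon conditioned medium after compound addition.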 Type of assay: functional. Background: In a reporter assay the amount or activity of a reporter protein is the signal.
A short description of assay [7]: Luminescence Cell-Based Dose Retest to Confirm Inhibitors of Cancer Stem Cells. [Related pubchem assays (depositor defined):AID2717, AID2721]. Format: functional. As to conditions: Homo sapiens.
A short description of assay [8]: luciferase reporter signal suppression in cells – H4 neuroglioma cells, luminescence, dose response (AID 1990). Format: functional, cell-based.
The target of assay [9] is T2, Nuclear receptor subfamily 0 group B member 1 (Homo sapiens, UniProt P51843).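 Further: HEK293T cells transfected with SF-1 and DAX-1 plus StAR promoter luciferase reporter.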
T2 sequence (P51843 whole entry): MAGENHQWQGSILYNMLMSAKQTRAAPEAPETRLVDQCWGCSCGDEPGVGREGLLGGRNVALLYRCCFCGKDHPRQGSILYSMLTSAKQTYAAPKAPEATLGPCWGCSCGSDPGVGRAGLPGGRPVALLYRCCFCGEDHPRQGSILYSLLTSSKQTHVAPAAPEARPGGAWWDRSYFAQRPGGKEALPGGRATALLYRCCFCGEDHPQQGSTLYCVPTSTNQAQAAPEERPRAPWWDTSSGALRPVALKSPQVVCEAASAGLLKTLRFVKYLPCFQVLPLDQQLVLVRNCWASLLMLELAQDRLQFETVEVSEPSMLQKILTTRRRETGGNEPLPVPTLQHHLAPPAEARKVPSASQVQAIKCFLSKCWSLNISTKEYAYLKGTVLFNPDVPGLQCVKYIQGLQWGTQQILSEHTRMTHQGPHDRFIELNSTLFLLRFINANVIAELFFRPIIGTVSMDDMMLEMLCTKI
Format: functional, cell-based.

Assay [10] deals with T3, RNA-binding protein pos-1 (Caenorhabditis elegans, UniProt G5EF15).
T3 sequence (G5EF15 whole entry): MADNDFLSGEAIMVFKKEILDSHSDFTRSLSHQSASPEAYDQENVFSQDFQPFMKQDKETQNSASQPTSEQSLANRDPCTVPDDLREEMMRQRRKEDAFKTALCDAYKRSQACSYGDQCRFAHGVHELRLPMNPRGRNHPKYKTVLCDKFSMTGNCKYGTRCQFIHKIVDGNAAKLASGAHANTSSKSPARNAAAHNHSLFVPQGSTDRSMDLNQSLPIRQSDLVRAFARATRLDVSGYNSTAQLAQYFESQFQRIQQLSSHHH
Put plainly: disruptors of C. elegans POS-1 RNA interaction – biochemical, fluorescence polarization, dose response (AID 1964).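 Further: purified POS-1 fused to maltose binding protein made in E. coli; potency of compounds blocking POS-1 binding to fluorescent RNA.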

The target in assay [11] is T4, Zinc finger protein mex-5 (Caenorhabditis elegans, UniProt Q9XUB2).
T4 sequence (Q9XUB2 whole entry): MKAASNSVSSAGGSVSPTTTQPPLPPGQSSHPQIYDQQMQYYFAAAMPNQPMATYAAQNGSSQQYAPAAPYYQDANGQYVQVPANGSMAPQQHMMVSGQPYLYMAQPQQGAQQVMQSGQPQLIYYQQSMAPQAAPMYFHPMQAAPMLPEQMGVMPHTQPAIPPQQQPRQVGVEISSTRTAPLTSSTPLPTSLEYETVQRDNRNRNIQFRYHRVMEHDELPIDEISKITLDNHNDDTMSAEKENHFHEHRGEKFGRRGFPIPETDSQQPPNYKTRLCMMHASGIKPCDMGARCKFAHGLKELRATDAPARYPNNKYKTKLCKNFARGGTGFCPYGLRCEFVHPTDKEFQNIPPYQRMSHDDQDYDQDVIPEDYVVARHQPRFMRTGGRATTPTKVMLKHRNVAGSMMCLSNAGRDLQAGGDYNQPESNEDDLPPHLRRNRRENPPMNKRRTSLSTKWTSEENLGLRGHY
Put plainly: potency of MEX-5 RNA-binding blockers – biochemical, C. elegans, fluorescence polarization, dose response (AID 1960). In general terms: Fluorescence polarisation rises when a labelled molecule tumbles more slowly, as on binding a larger partner.

Another assay is described as follows: cells. Format: functional, cell-based.
Assay [12] addresses Luciferin 4-monooxygenase (Photinus pyralis, UniProt P08659). Put plainly: inhibition of purified Photinus pyralis luciferase – biochemical, luminescence, dose response (AID 1891).
Assay [13] can be described thus: Luminescence Cell-Based Dose Response HTS to Identify Inhibitors of 5'UTR Stem-Loop Driven Prion Protein mRNA Translation in H4 Neuroglioblastoma Cells. [Related pubchem assays: 1827 (Project Summary), 1813 (Primary HTS)]. Type of assay: functional.
The nature of assay [14]: Luminescence Cell-Based Dose Confirmation HTS to Identify Inhibitors of Platelet Dense Granule Release. [Related pubchem assays: 1663 (Primary HTS), 1678 (Summary of Project)]. Type of assay: functional.
Assay [15] is described as follows: alpha-synuclein stem-loop luciferase translation blockers – H4 neuroglioma cells, luminescence, confirmation (AID 1988). Type of assay: functional, cell-based.
Assay [16] is described as follows: off-target signal loss in HeLa-CEM21 co-culture – HeLa F-luc CTL cells, cherry-picked, counter-screen for HIV-1 Env fusion inhibitor project, dose response (AID 652040).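 Further: potency for signal decrease marking cytotoxic or nonspecific inhibition.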 Format: functional, cell-based.
A short description of assay [17]: HIV-1 AD8 envelope cell-cell fusion blockers – cherry-pick, dose response (AID 652062).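 Further: luciferase signal from cell-cell fusion driven by HIV-1 clade B AD8 Env; potency is for inhibitors of fusion seen as a drop in luminescence.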 Format: functional, cell-based.
Assay [18] can be described thus: viability loss in CEM21 cells – cell-based, CellTiter-Glo luminescence, cherry-picked, cytotoxicity control for viral fusion inhibitor project, dose response (AID 652042).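 Further: potency for signal decrease meaning cytotoxicity.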 Format: functional.
In assay [19] the target is T5, Short transient receptor potential channel 4 (Mus musculus, UniProt Q9QUQ5).
T5 sequence (Q9QUQ5 whole entry): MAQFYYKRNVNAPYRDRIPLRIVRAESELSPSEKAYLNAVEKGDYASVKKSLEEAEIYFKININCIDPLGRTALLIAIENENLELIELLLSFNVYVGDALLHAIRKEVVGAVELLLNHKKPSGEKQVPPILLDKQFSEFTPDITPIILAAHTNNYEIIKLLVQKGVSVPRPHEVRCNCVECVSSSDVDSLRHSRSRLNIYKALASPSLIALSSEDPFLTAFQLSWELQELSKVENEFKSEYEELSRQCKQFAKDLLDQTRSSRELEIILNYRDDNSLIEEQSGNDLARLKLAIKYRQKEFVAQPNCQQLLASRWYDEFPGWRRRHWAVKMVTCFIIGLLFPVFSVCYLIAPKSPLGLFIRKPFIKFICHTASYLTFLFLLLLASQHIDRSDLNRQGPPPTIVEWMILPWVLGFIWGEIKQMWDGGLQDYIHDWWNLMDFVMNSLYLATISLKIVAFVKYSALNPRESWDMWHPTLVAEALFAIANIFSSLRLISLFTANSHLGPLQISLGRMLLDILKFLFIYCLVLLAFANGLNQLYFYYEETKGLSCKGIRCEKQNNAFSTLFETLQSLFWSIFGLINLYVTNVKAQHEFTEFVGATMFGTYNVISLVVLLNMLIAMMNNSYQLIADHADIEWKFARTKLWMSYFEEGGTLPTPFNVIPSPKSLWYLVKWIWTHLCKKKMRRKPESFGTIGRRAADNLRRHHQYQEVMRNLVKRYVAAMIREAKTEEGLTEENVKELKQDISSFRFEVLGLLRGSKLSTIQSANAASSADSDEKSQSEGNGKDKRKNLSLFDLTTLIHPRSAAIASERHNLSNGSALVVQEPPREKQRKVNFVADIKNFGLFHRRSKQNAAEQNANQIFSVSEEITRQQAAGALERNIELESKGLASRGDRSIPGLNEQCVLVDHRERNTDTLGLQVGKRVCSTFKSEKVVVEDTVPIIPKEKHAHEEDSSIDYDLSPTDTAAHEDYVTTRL
Put plainly: calcium entry via TRPC4 opening agents – cell-based, HEK293 TRPC4/mu-opioid, Fluo-4 calcium, dose response (AID 434937). Format: functional.

Assay [20] is described as follows: blockers of HIV-1 envelope-mediated cell-cell fusion – cherry-pick, dose response (AID 652057). Format: functional, cell-based.
A short description of assay [21]: blockers of HIV-1 ZM109 envelope-driven cell-cell fusion – HeLa effector, CEM target cells, luciferase, cherry-pick, dose response (AID 652058).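 Further: luciferase signal from HIV-1 Env mediated cell-cell fusion of effector and target cells.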 Type of assay: functional, cell-based.

SMILES strings stand for the structures. The source made the active and inactive calls. Where only a bound is given, the exact number is not on record here.

Results on seven compounds are retold here after ChEMBL document CHEMBL1201862, “PubChem BioAssay data set” (2004).

Broadly, the IC50 is the concentration that gives 50% inhibition. The AC50 is the concentration at which the activity in the assay is half-maximal. As a reminder, the CC50 is the concentration giving 50% cytotoxicity. As usually defined, the EC50 is the concentration giving half of the maximal effect.

Luciferin 4-monooxygenase, sequence (P08659 whole entry): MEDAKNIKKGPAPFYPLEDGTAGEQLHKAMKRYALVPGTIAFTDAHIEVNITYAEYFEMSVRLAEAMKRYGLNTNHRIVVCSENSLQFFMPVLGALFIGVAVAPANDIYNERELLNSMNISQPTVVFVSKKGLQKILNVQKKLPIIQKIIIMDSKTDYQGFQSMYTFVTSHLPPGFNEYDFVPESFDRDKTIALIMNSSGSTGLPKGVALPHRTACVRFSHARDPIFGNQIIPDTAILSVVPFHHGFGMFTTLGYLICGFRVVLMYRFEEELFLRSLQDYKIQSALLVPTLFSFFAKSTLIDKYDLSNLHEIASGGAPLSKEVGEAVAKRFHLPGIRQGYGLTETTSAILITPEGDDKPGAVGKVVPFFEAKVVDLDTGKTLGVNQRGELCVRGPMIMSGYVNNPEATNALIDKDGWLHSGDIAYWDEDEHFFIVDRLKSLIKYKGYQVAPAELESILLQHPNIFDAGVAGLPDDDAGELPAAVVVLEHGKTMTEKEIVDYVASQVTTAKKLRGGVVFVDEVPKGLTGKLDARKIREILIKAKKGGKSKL

Consider `O=C(CSc1nnc[nH]1)Nc1ccc2c(c1)CCC2`, for which, on Leucine aminopeptidase, the concentration for half-maximal inhibition (IC50) was 22.3 µM (active).
Consider `Cc1ccc(NC(=O)CSc2ncc(S(=O)(=O)c3ccccc3)c(O)n2)cc1C`, for which the IC50 at Leucine aminopeptidase was 4.56 µM (active).
Consider `O=C(CSc1[nH]cnc2nncc1-2)Nc1nc(-c2ccc(F)c(F)c2)cs1`, for which the results for the AC50 in assay [1], in assay [2] and in assay [3] were > 52 µM (inactive), > 52 µM (inactive) and 46.1 µM (active), respectively.
Turning to `CC1CCc2[nH]c3ccc(C(=O)N(C)CC(=O)Nc4ccc(F)cc4)cc3c2C1` (centres undefined), in assay [4], the CC50 was > 40 µM (active).
Regarding `COc1cccc(/C=C/c2ccc3ccccc3n2)c1OC(C)=O`, the AC50 in the assay with HEK293 was 1.87 µM (active); in [1], 30.1 µM (active); in assay [5], 2.59 µM (active); in assay [2], 33.3 µM (active); in [6], 2.77 µM (active); in assay [7], 6.67 µM (active). For the same compound, the AC50 in assay [3] is 25.3 µM (active).
In the case of `Cc1nc2sc(-c3ccccc3)cc2c(=O)n1N`, the EC50 in assay [8] is 2.82 µM (active); in assay [10], > 300 µM (not active); in assay [11], > 300 µM (not active); in [12] it was 1.01 µM (active); in [13], 6.26 µM (active); in [14] it was 1.73 µM (active). For the same compound, the concentration giving a half-maximal response (EC50) in assay [15] was 3.44 µM (active). Besides, the IC50 (in assay [9]; in the assay “cells”) was > 67.6 µM (inactive) in each case. Also, the AC50 in the assay on HEK293 is 1.04 µM (active); in assay [1] it was 24.9 µM (active); in [5] it was 2.66 µM (active); in assay [2] it was 50 µM (active); in assay [6] it was 2.31 µM (active); in assay [3], 24.2 µM (active).
As to `COc1ccc(C(CCNCc2ccc(N(C)C)cc2)c2ccccc2)cc1` (centres undefined), the AC50 in assay [16] is 17.5 µM (active); in assay [17], 26.1 µM (active); in assay [18] it was 18.2 µM (active); in assay [20] it was 4.13 µM (active); in assay [21], 14.4 µM (active). Besides, in [19], the EC50 is 5.96 µM (active).
